Measurements taken from ChEMBL document CHEMBL1201862, “PubChem BioAssay data set” (2004).
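Five compound concentrations were applied to cells in 96-well plates for 48 hours; endpoints were derived by simple linear interpolation of the resulting dose-response curve. Here, GI50 denotes the concentration required for 50% inhibition of growth.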 Activity calls are given as the source filed them. Rule as the data show it: active = GI50 up to about 1.1 µM and inactive = higher.

Key:
Assay in all cases: inhibition of tumour cell growth, NCI panel, 48 h
[1] = test system: OVCAR-8
[2] = test system: HCT-15
[3] = test system: HCT-116
[4] = test system: NCI-H226
[5] = test system: SF-268
[6] = test system: OVCAR-4
[7] = test system: K562
[8] = test system: SF-539
[9] = test system: IGROV-1
[10] = test system: KM12
[11] = test system: SN12C
[12] = test system: NCI-H23
[13] = test system: HL-60
[14] = test system: OVCAR-5
[15] = test system: SK-MEL-28
[16] = test system: HCC 2998
[17] = test system: EKVX
[18] = test system: LOX IMVI
[19] = test system: NCI-H460

Row | SMILES | GI50 [1] | GI50 [2] [µM] | GI50 [3] | GI50 [4] | GI50 [5] | GI50 [6] | GI50 [7] | GI50 [8] | GI50 [9] | GI50 [10] | GI50 [11] | GI50 [12] | GI50 [13] | GI50 [14] | GI50 [15] | GI50 [16] | GI50 [17] | GI50 [18] | GI50 [19]
1 | CCC1(CN(C)C)CC/C(=C\c2ccc3c(c2)OCO3)C1=O (configuration not stated) | 91.6 µM (inactive) | > 100 | > 100 µM (inactive) | > 100 µM (inactive) | > 100 µM (inactive) | > 100 µM (inactive) | 65.9 µM (inactive) | > 100 µM (inactive) | > 100 µM (inactive) | > 100 µM (inactive) | > 100 µM (inactive) | > 100 µM (inactive) | 11.4 µM (inactive) | > 100 µM (inactive) | > 100 µM (inactive) | > 100 µM (inactive) | 52.1 µM (inactive) | > 100 µM (inactive) | –
2 | COC(=O)C1=C(C)N(NC(=O)Nc2ccccc2)C2(N)N(NC(=O)Nc3ccccc3)C(C)=C(C(=O)OC)C12C(=O)OC (configuration not stated) | 71 µM (inactive) | 76.4 | > 100 µM (inactive) | 60.4 µM (inactive) | > 100 µM (inactive) | 64.9 µM (inactive) | 51.9 µM (inactive) | – | 24.5 µM (inactive) | – | 63.2 µM (inactive) | > 100 µM (inactive) | – | > 100 µM (inactive) | > 100 µM (inactive) | 39.4 µM (inactive) | – | 72.6 µM (inactive) | 38.3 µM (inactive)
3 | COC(=O)C1[C@@H](C(=O)OC)C12C=Cc1ccccc1C=C2 (some centres not stated) | > 100 µM (inactive) | > 100 | > 100 µM (inactive) | – | > 100 µM (inactive) | – | > 100 µM (inactive) | > 100 µM (inactive) | > 100 µM (inactive) | > 100 µM (inactive) | > 100 µM (inactive) | > 100 µM (inactive) | > 100 µM (inactive) | > 100 µM (inactive) | > 100 µM (inactive) | > 100 µM (inactive) | > 100 µM (inactive) | > 100 µM (inactive) | > 100 µM (inactive)
4 | O=C1NC(=O)C(C(=O)C(=O)Nc2cc(Cl)ccc2Cl)C(=O)N1 | > 100 µM (inactive) | > 100 | > 100 µM (inactive) | – | > 100 µM (inactive) | > 100 µM (inactive) | > 100 µM (inactive) | > 100 µM (inactive) | > 100 µM (inactive) | > 100 µM (inactive) | – | > 100 µM (inactive) | > 100 µM (inactive) | > 100 µM (inactive) | > 100 µM (inactive) | > 100 µM (inactive) | > 100 µM (inactive) | – | > 100 µM (inactive)
5 | COc1ccc(NC(=O)CC(=O)N/N=C/c2ccc(N(CCC#N)S(C)(=O)=O)cc2)cc1 | > 100 µM (inactive) | > 100 | > 100 µM (inactive) | > 100 µM (inactive) | > 100 µM (inactive) | > 100 µM (inactive) | > 100 µM (inactive) | > 100 µM (inactive) | > 100 µM (inactive) | > 100 µM (inactive) | > 100 µM (inactive) | > 100 µM (inactive) | – | > 100 µM (inactive) | > 100 µM (inactive) | > 100 µM (inactive) | > 100 µM (inactive) | > 100 µM (inactive) | > 100 µM (inactive)
6 | O=C1c2ccccc2C(=O)N1CCN(CCN1C(=O)c2ccccc2C1=O)Cn1cccn1 | > 100 µM (inactive) | > 100 | 17.8 µM (inactive) | – | > 100 µM (inactive) | > 100 µM (inactive) | 33.4 µM (inactive) | – | – | > 100 µM (inactive) | > 100 µM (inactive) | – | 27.4 µM (inactive) | – | 73.8 µM (inactive) | > 100 µM (inactive) | > 100 µM (inactive) | > 100 µM (inactive) | 84.3 µM (inactive)
7 | CC1C=C[C@H](Sc2ccccc2)CC[C@@]1(C)O (some centres not stated) | > 100 µM (inactive) | > 100 | 97.3 µM (inactive) | > 100 µM (inactive) | – | – | 67.5 µM (inactive) | > 100 µM (inactive) | > 100 µM (inactive) | – | > 100 µM (inactive) | 70.5 µM (inactive) | 33.6 µM (inactive) | > 100 µM (inactive) | > 100 µM (inactive) | > 100 µM (inactive) | > 100 µM (inactive) | > 100 µM (inactive) | > 100 µM (inactive)
8 | CC(=O)O[C@]12CCCCC1C1(O)C(O)CCCC[C@H]12 (some centres not stated) | > 100 µM (inactive) | > 100 | > 100 µM (inactive) | > 100 µM (inactive) | > 100 µM (inactive) | > 100 µM (inactive) | > 100 µM (inactive) | – | – | > 100 µM (inactive) | > 100 µM (inactive) | > 100 µM (inactive) | > 100 µM (inactive) | – | > 100 µM (inactive) | – | > 100 µM (inactive) | > 100 µM (inactive) | > 100 µM (inactive)
9 | Cc1ccc(S(=O)(=O)NC2(C=O)CCCC3CCCCC32)cc1 (configuration not stated) | > 100 µM (inactive) | > 100 | > 100 µM (inactive) | > 100 µM (inactive) | > 100 µM (inactive) | > 100 µM (inactive) | > 100 µM (inactive) | > 100 µM (inactive) | > 100 µM (inactive) | > 100 µM (inactive) | > 100 µM (inactive) | – | > 100 µM (inactive) | – | > 100 µM (inactive) | > 100 µM (inactive) | – | – | > 100 µM (inactive)
10 | CC1OC(=O)C(O)=C1O (configuration not stated) | > 100 µM (inactive) | > 100 | > 100 µM (inactive) | > 100 µM (inactive) | 47.2 µM (inactive) | > 100 µM (inactive) | > 100 µM (inactive) | > 100 µM (inactive) | > 100 µM (inactive) | > 100 µM (inactive) | > 100 µM (inactive) | > 100 µM (inactive) | – | > 100 µM (inactive) | – | > 100 µM (inactive) | > 100 µM (inactive) | > 100 µM (inactive) | > 100 µM (inactive)
11 | Cc1ccc(C2[C@H]3C(=O)N(c4ccc(Cc5ccc(N6C(=O)[C@@H]7ON(c8ccccc8)C(c8ccc(C)cc8)[C@@H]7C6=O)cc5)cc4)C(=O)[C@H]3ON2c2ccccc2)cc1 (some centres not stated) | – | > 100 | – | > 100 µM (inactive) | > 100 µM (inactive) | > 100 µM (inactive) | > 100 µM (inactive) | > 100 µM (inactive) | > 100 µM (inactive) | > 100 µM (inactive) | > 100 µM (inactive) | > 100 µM (inactive) | > 100 µM (inactive) | > 100 µM (inactive) | > 100 µM (inactive) | > 100 µM (inactive) | – | > 100 µM (inactive) | > 100 µM (inactive)
12 | CCOC(=O)/C(=C/c1ccc(N(C)C)cc1)N(CC)CC | > 100 µM (inactive) | 40.3 | 48.1 µM (inactive) | 21.1 µM (inactive) | 76.6 µM (inactive) | 73.1 µM (inactive) | 22.5 µM (inactive) | > 100 µM (inactive) | > 100 µM (inactive) | 79.8 µM (inactive) | 84.7 µM (inactive) | 49.4 µM (inactive) | 27.2 µM (inactive) | > 100 µM (inactive) | > 100 µM (inactive) | > 100 µM (inactive) | 35.2 µM (inactive) | 27.7 µM (inactive) | –
13 | COC(=O)c1ccc(/C=C/S(=O)(=O)c2ccccc2)cc1 | > 100 µM (inactive) | > 100 | > 100 µM (inactive) | > 100 µM (inactive) | > 100 µM (inactive) | > 100 µM (inactive) | > 100 µM (inactive) | > 100 µM (inactive) | > 100 µM (inactive) | > 100 µM (inactive) | > 100 µM (inactive) | > 100 µM (inactive) | > 100 µM (inactive) | > 100 µM (inactive) | 44.9 µM (inactive) | – | > 100 µM (inactive) | > 100 µM (inactive) | > 100 µM (inactive)
14 | COC(=O)c1ccc2n[se]nc2c1 | > 100 µM (inactive) | > 100 | > 100 µM (inactive) | – | > 100 µM (inactive) | > 100 µM (inactive) | > 100 µM (inactive) | > 100 µM (inactive) | > 100 µM (inactive) | > 100 µM (inactive) | > 100 µM (inactive) | > 100 µM (inactive) | > 100 µM (inactive) | > 100 µM (inactive) | > 100 µM (inactive) | > 100 µM (inactive) | 71 µM (inactive) | > 100 µM (inactive) | > 100 µM (inactive)
15 | C=CCCC(C)N(C(=O)OC(C)(C)C)S(=O)(=O)c1ccc(C)cc1 (configuration not stated) | > 100 µM (inactive) | > 100 | > 100 µM (inactive) | > 100 µM (inactive) | > 100 µM (inactive) | > 100 µM (inactive) | > 100 µM (inactive) | > 100 µM (inactive) | > 100 µM (inactive) | > 100 µM (inactive) | > 100 µM (inactive) | > 100 µM (inactive) | > 100 µM (inactive) | > 100 µM (inactive) | > 100 µM (inactive) | > 100 µM (inactive) | – | > 100 µM (inactive) | > 100 µM (inactive)
16 | O=C1C(=O)C2(CC1S(=O)(=O)c1ccccc1)c1ccccc1-c1ccccc12 (configuration not stated) | 17.9 µM (inactive) | 16.7 | 17.3 µM (inactive) | 37.4 µM (inactive) | 27.4 µM (inactive) | 48.9 µM (inactive) | 27.6 µM (inactive) | – | 23.1 µM (inactive) | 19.2 µM (inactive) | 28.8 µM (inactive) | 15.5 µM (inactive) | 27.9 µM (inactive) | 23 µM (inactive) | 19.7 µM (inactive) | 14.7 µM (inactive) | 28.8 µM (inactive) | 18.5 µM (inactive) | 18.6 µM (inactive)
